In patent publication US9469650B2, “Melampomagnolide B derivatives” (BOARD OF TRUSTEES OF THE UNIVERSITY OF ARKANSAS, priority 2013, dated 2016):
Where two headings read alike, the source gives them in different places.

What was measured:
CCRF-CEM = test: panel of 60 human tumor cell lines, growth inhibition (Leukemia)
MOLT-4 = test: as above; conditions: MOLT-4
LOX IMVI = test: panel of 60 human tumor cell lines, growth inhibition (Melanoma)
SK-MEL-2 = test: as above; conditions: SK-MEL-2
SK-MEL-5 = test: as above; conditions: 8K-MEL-5
HCC-2998 = test: panel of 60 human tumor cell lines, growth inhibition (Colon Cancer); conditions: HCC-2998
HCT-15 = test: as above; conditions: HCT-15
CAKI-1 = test: panel of 60 human tumor cell lines, growth inhibition (Renal Cancer); conditions: CAKI-1
RXF 393 = test: as above; conditions: RXF 393
SN12C = test: as above
MCF7 = test: panel of 60 human tumor cell lines, growth inhibition (Breast Cancer); conditions: MCF7
MDA-MB-231/ATCC = test: as above; conditions: MDA-MB-231/ATCC
SK-OV-3 = test: panel of 60 human tumor cell lines, growth inhibition (Ovarian Cancer); conditions: SK-OV-3
DU-145 = test: panel of 60 human tumor cell lines, growth inhibition (Prostate Cancer); conditions: DU-145
HOP-62 = test: panel of 60 human tumor cell lines, growth inhibition (Non-Small Cell Lung Cancer); conditions: HOP-62
HOP-92 = test: as above; conditions: HOP-92
NCI-H226 = test: as above; conditions: NCI-H226
NCI-H460 = test: as above; conditions: NCI-H460

In the case of C=C1C(=O)O[C@H]2[C@H]1CC/C(COC(=O)NC)=C\CC[C@@]1(C)O[C@@H]21 [JVM 2-57], the “Percent Growth” value (HL-60(TB); Log10 Concentration −4.0) was −55%, the “Percent Growth” value (HL-60(TB); Log10 Concentration −5.0) was −11% and the “Percent Growth” value (HL-60(TB); Log10 Concentration −6.0) was 84%. The “Percent Growth” value (HL-60(TB); Log10 Concentration −7.0) was 91%, the “Percent Growth” value (HL-60(TB); Log10 Concentration −8.0) was 96% and the GI50 (HL-60(TB); NCI five dose) was 2.28 µM. For the same compound, the TGI (HL-60(TB); NCI five dose) was 7.73E−6, the CC50 (HL-60(TB); read-out: LC50, NCI five dose) was 77.2 µM and the “Percent Growth” value (CCRF-CEM; Log10 Concentration −4.0) was −53%. The “Percent Growth” value (CCRF-CEM; Log10 Concentration −5.0) was −29%, the “Percent Growth” value (CCRF-CEM; Log10 Concentration −6.0) was 59% and the “Percent Growth” value (CCRF-CEM; Log10 Concentration −7.0) was 93%. For the same compound, the “Percent Growth” value (CCRF-CEM; Log10 Concentration −8.0) was 97%, the GI50 (CCRF-CEM; NCI five dose) was 1.25 µM and the TGI (CCRF-CEM; NCI five dose) was 4.69E−6. The “Percent Growth” value (MOLT-4; Log10 Concentration −4.0) was −39%, the “Percent Growth” value (MOLT-4; Log10 Concentration −5.0) was 8% and the “Percent Growth” value (MOLT-4; Log10 Concentration −6.0) was 98%. The “Percent Growth” value (MOLT-4; Log10 Concentration −7.0) was 90%, the “Percent Growth” value (MOLT-4; Log10 Concentration −8.0) was 97% and the GI50 (MOLT-4; NCI five dose) was 3.4 µM. The TGI (MOLT-4; NCI five dose) was 1.49E−5, the “Percent Growth” value (LOX IMVI; Log10 Concentration −4.0) was −91% and the “Percent Growth” value (LOX IMVI; Log10 Concentration −5.0) was 21%. The “Percent Growth” value (LOX IMVI; Log10 Concentration −6.0) was 92%, the “Percent Growth” value (LOX IMVI; Log10 Concentration −7.0) was 95% and the “Percent Growth” value (LOX IMVI; Log10 Concentration −8.0) was 96%. The GI50 (LOX IMVI; NCI five dose) was 3.92 µM, the TGI (LOX IMVI; NCI five dose) was 1.55E−5 and the “Percent Growth” value (SK-MEL-2; Log10 Concentration −4.0) was −70%. The “Percent Growth” value (SK-MEL-2; Log10 Concentration −5.0) was 53%, the “Percent Growth” value (SK-MEL-2; Log10 Concentration −6.0) was 99% and the “Percent Growth” value (SK-MEL-2; Log10 Concentration −7.0) was 99%. For the same compound, the “Percent Growth” value (SK-MEL-2; Log10 Concentration −8.0) was 96%, the GI50 (SK-MEL-2; NCI five dose) was 10.5 µM and the TGI (SK-MEL-2; NCI five dose) was 2.69E−5. The “Percent Growth” value (SK-MEL-5; Log10 Concentration −4.0) was −73%, the “Percent Growth” value (SK-MEL-5; Log10 Concentration −5.0) was 56% and the “Percent Growth” value (SK-MEL-5; Log10 Concentration −6.0) was 97%. For the same compound, the “Percent Growth” value (SK-MEL-5; Log10 Concentration −7.0) was 98%, the “Percent Growth” value (SK-MEL-5; Log10 Concentration −8.0) was 100% and the GI50 (SK-MEL-5; NCI five dose) was 11.1 µM. The TGI (SK-MEL-5; NCI five dose) was 2.70E−5, the “Percent Growth” value (HCC-2998; Log10 Concentration −4.0) was −81% and the “Percent Growth” value (HCC-2998; Log10 Concentration −5.0) was 65%. The “Percent Growth” value (HCC-2998; Log10 Concentration −6.0) was 107%, the “Percent Growth” value (HCC-2998; Log10 Concentration −7.0) was 91% and the “Percent Growth” value (HCC-2998; Log10 Concentration −8.0) was 94%. The GI50 (HCC-2998; NCI five dose) was 12.7 µM, the TGI (HCC-2998; NCI five dose) was 2.80E−5 and the “Percent Growth” value (HCT-15; Log10 Concentration −4.0) was −83%. The “Percent Growth” value (HCT-15; Log10 Concentration −5.0) was 4%, the “Percent Growth” value (HCT-15; Log10 Concentration −6.0) was 82% and the “Percent Growth” value (HCT-15; Log10 Concentration −7.0) was 97%. For the same compound, the “Percent Growth” value (HCT-15; Log10 Concentration −8.0) was 98%, the GI50 (HCT-15; NCI five dose) was 2.58 µM and the TGI (HCT-15; NCI five dose) was 1.12E−5. The “Percent Growth” value (CAKI-1; Log10 Concentration −4.0) was −97%, the “Percent Growth” value (CAKI-1; Log10 Concentration −5.0) was 10% and the “Percent Growth” value (CAKI-1; Log10 Concentration −6.0) was 82%. For the same compound, the “Percent Growth” value (CAKI-1; Log10 Concentration −7.0) was 89%, the “Percent Growth” value (CAKI-1; Log10 Concentration −8.0) was 96% and the GI50 (CAKI-1; NCI five dose) was 2.78 µM. For the same compound, the TGI (CAKI-1; NCI five dose) was 1.25E−5, the “Percent Growth” value (RXF 393; Log10 Concentration −4.0) was −76% and the “Percent Growth” value (RXF 393; Log10 Concentration −5.0) was −2%. For the same compound, the “Percent Growth” value (RXF 393; Log10 Concentration −6.0) was 75%, the “Percent Growth” value (RXF 393; Log10 Concentration −7.0) was 107% and the “Percent Growth” value (RXF 393; Log10 Concentration −8.0) was 99%. For the same compound, the GI50 (RXF 393; NCI five dose) was 2.12 µM, the TGI (RXF 393; NCI five dose) was 9.35E−6 and the “Percent Growth” value (SN12C; Log10 Concentration −4.0) was −59%. The “Percent Growth” value (SN12C; Log10 Concentration −5.0) was 28%, the “Percent Growth” value (SN12C; Log10 Concentration −6.0) was 93% and the “Percent Growth” value (SN12C; Log10 Concentration −7.0) was 97%. The “Percent Growth” value (SN12C; Log10 Concentration −8.0) was 96%, the GI50 (SN12C; NCI five dose) was 4.57 µM and the TGI (SN12C; NCI five dose) was 2.09E−5. For the same compound, the “Percent Growth” value (MCF7; Log10 Concentration −4.0) was −75%, the “Percent Growth” value (MCF7; Log10 Concentration −5.0) was 4% and the “Percent Growth” value (MCF7; Log10 Concentration −6.0) was 83%. For the same compound, the “Percent Growth” value (MCF7; Log10 Concentration −7.0) was 88%, the “Percent Growth” value (MCF7; Log10 Concentration −8.0) was 94% and the GI50 (MCF7; NCI five dose) was 2.61 µM. The TGI (MCF7; NCI five dose) was 1.11E−5, the “Percent Growth” value (MDA-MB-231/ATCC; Log10 Concentration −4.0) was −77% and the “Percent Growth” value (MDA-MB-231/ATCC; Log10 Concentration −5.0) was 31%. The “Percent Growth” value (MDA-MB-231/ATCC; Log10 Concentration −6.0) was 86%, the “Percent Growth” value (MDA-MB-231/ATCC; Log10 Concentration −7.0) was 89% and the “Percent Growth” value (MDA-MB-231/ATCC; Log10 Concentration −8.0) was 106%. The GI50 (MDA-MB-231/ATCC; NCI five dose) was 4.48 µM, the TGI (MDA-MB-231/ATCC; NCI five dose) was 1.93E−5 and the “Percent Growth” value (SK-OV-3; Log10 Concentration −4.0) was −26%. For the same compound, the “Percent Growth” value (SK-OV-3; Log10 Concentration −5.0) was 91%, the “Percent Growth” value (SK-OV-3; Log10 Concentration −6.0) was 105% and the “Percent Growth” value (SK-OV-3; Log10 Concentration −7.0) was 90%. The “Percent Growth” value (SK-OV-3; Log10 Concentration −8.0) was 101%, the GI50 (SK-OV-3; NCI five dose) was 22.4 µM and the TGI (SK-OV-3; NCI five dose) was 5.96E−5. For the same compound, the “Percent Growth” value (DU-145; Log10 Concentration −4.0) was −97%, the “Percent Growth” value (DU-145; Log10 Concentration −5.0) was 19% and the “Percent Growth” value (DU-145; Log10 Concentration −6.0) was 93%. The “Percent Growth” value (DU-145; Log10 Concentration −7.0) was 103%, the “Percent Growth” value (DU-145; Log10 Concentration −8.0) was 104% and the GI50 (DU-145; NCI five dose) was 3.78 µM. For the same compound, the TGI (DU-145; NCI five dose) was 1.45E−5, the “Percent Growth” value (HOP-62; Log10 Concentration −4.0) was −86% and the “Percent Growth” value (HOP-62; Log10 Concentration −5.0) was 72%. The “Percent Growth” value (HOP-62; Log10 Concentration −6.0) was 92%, the “Percent Growth” value (HOP-62; Log10 Concentration −7.0) was 86% and the “Percent Growth” value (HOP-62; Log10 Concentration −8.0) was 95%. The GI50 (HOP-62; NCI five dose) was 13.9 µM, the TGI (HOP-62; NCI five dose) was 2.87E−5 and the “Percent Growth” value (HOP-92; Log10 Concentration −4.0) was −95%. For the same compound, the “Percent Growth” value (HOP-92; Log10 Concentration −5.0) was −9%, the “Percent Growth” value (HOP-92; Log10 Concentration −6.0) was 83% and the “Percent Growth” value (HOP-92; Log10 Concentration −7.0) was 91%. For the same compound, the “Percent Growth” value (HOP-92; Log10 Concentration −8.0) was 92%, the GI50 (HOP-92; NCI five dose) was 2.26 µM and the TGI (HOP-92; NCI five dose) was 7.90E−6. For the same compound, the “Percent Growth” value (NCI-H226; Log10 Concentration −4.0) was −52%, the “Percent Growth” value (NCI-H226; Log10 Concentration −5.0) was 49% and the “Percent Growth” value (NCI-H226; Log10 Concentration −6.0) was 86%. For the same compound, the “Percent Growth” value (NCI-H226; Log10 Concentration −7.0) was 101%, the “Percent Growth” value (NCI-H226; Log10 Concentration −8.0) was 92% and the GI50 (NCI-H226; NCI five dose) was 9.29 µM. For the same compound, the TGI (NCI-H226; NCI five dose) was 3.06E−5, the “Percent Growth” value (NCI-H460; Log10 Concentration −4.0) was −65% and the “Percent Growth” value (NCI-H460; Log10 Concentration −5.0) was 78%. The “Percent Growth” value (NCI-H460; Log10 Concentration −6.0) was 101%, the “Percent Growth” value (NCI-H460; Log10 Concentration −7.0) was 103% and the “Percent Growth” value (NCI-H460; Log10 Concentration −8.0) was 103%. The GI50 (NCI-H460; NCI five dose) was 15.6 µM and the TGI (NCI-H460; NCI five dose) was 3.49E−5.
